# According to the Kinase Knowledgebase extract (Sharma et al. 2016):
# Assays:
# PIK3CA (human) = PIK3CA (human) (UniProt P42336); assay: Inhibition of PIK3CA Kinase Activity
# PIK3CG (human) [1] = target: PIK3CG (human) (UniProt P48736); assay: Inhibition of PIK3CG Kinase Activity
# PIK3CD (Human) [2] = target: PIK3CD (Human) (UniProt O00329); assay: Inhibition of PIK3CD Kinase Activity
# PIK3CB (Human) = PIK3CB (Human) (UniProt P42338); assay: Inhibition of PIK3CB Kinase Activity
# PIK3CG;PIK3CA (human) = PIK3CG;PIK3CA (human) (UniProt P48736); assay: Antiproliferation of PC3-MM2 Cells; conditions: pc-3
# Sequence of PIK3CG;PIK3CA (human) (P48736 whole entry, looked up): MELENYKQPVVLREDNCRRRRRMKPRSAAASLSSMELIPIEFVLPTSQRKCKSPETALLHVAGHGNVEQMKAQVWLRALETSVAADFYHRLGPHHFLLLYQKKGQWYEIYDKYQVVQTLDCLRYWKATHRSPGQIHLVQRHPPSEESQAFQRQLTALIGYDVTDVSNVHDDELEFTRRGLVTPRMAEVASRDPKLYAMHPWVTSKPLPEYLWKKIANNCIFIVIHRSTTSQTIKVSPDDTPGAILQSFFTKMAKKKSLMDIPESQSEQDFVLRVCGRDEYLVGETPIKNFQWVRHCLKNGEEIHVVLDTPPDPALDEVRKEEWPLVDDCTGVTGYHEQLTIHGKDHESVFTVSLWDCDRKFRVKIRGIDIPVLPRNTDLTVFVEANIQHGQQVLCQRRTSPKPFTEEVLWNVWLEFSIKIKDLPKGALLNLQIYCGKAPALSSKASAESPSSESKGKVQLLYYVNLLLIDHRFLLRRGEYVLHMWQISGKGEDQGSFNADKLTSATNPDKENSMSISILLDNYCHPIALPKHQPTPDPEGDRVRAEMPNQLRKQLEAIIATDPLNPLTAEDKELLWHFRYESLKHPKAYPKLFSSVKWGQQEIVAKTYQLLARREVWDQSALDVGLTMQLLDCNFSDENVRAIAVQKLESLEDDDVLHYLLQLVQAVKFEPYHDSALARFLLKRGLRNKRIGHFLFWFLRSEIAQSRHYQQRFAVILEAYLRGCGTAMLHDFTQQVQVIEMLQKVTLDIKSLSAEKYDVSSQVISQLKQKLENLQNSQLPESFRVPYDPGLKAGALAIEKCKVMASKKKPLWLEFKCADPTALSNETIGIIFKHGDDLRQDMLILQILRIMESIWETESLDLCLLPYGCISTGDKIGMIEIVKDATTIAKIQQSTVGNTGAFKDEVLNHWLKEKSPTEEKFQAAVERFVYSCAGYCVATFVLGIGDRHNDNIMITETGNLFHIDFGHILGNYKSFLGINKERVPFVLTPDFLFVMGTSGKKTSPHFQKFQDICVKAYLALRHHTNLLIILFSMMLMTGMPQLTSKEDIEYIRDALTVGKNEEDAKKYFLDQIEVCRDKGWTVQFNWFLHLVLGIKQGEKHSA
# EGFR [3] = target: EGFR (UniProt P00533)
# Sequence of EGFR (P00533 whole entry, looked up): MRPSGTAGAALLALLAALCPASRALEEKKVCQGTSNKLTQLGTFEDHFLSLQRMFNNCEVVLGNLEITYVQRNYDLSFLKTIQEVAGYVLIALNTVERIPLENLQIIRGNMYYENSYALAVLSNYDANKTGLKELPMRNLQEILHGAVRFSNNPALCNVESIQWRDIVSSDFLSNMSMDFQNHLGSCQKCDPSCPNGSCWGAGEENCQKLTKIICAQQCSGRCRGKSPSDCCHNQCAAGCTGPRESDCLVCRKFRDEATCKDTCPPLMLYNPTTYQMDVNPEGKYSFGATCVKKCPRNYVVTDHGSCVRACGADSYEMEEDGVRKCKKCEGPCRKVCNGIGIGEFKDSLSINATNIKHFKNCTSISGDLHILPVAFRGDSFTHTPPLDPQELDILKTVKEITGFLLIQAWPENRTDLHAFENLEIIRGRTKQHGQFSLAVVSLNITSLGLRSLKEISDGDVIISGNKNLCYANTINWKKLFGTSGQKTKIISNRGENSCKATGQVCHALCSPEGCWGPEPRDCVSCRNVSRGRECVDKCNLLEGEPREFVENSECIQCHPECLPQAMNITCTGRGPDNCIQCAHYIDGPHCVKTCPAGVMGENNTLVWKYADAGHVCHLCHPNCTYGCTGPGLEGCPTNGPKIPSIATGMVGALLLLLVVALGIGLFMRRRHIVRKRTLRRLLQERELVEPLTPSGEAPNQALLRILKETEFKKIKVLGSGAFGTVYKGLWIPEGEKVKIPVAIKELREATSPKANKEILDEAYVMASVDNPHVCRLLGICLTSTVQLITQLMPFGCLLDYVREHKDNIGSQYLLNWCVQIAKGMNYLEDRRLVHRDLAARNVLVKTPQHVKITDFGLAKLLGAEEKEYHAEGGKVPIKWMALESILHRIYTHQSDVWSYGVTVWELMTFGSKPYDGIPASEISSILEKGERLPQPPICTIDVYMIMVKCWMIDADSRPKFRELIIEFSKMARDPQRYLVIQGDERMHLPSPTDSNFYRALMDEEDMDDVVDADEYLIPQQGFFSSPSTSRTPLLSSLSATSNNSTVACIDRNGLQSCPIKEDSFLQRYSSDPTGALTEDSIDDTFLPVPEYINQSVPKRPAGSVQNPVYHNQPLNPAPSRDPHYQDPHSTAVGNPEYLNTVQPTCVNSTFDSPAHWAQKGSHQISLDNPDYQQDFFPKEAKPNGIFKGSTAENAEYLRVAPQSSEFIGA
# MAPK14 [4] = target: MAPK14 (UniProt Q16539); assay: p38-alpha Kinase Inhibition
# Sequence of MAPK14 (Q16539 whole entry, looked up): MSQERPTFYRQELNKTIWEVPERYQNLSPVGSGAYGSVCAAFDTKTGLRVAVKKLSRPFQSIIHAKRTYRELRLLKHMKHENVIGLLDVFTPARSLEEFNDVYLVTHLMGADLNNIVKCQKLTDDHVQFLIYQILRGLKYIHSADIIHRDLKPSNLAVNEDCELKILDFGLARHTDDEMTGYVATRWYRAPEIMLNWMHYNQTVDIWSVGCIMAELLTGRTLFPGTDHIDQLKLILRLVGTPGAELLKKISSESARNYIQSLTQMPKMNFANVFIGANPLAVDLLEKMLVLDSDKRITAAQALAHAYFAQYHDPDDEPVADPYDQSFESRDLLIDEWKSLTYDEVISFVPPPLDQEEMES
# EGFR [5] = target: EGFR (UniProt P00533); conditions: concentration not given here
# EGFR (Hamster) = EGFR (Hamster) (UniProt P00533)
# Sequence of EGFR (Hamster) (P00533 whole entry, looked up): as the sequence (P00533 whole entry, looked up) above
# EGFR (mouse) = EGFR (mouse) (UniProt P00533)
# MAPK14 [6] = target: MAPK14 (UniProt Q16539)
# PIK3CG = PIK3CG (UniProt P48736); assay: Inhibition of PIK3CG Kinase Activity
# Sequence of PIK3CG (P48736 whole entry, looked up): as the sequence (P48736 whole entry, looked up) above
# CDK2 (human) [7] = target: CDK2 (human) (UniProt P24941); assay: Enzyme Assay
# PIK3CD (Human) [8] = target: PIK3CD (Human) (UniProt O00329); assay: Enzyme Assay
# PIK3CG (human) [9] = target: PIK3CG (human) (UniProt P48736); assay: Enzyme Assay
# EGFR [10] = target: EGFR (UniProt P00533); remark: listed apart in the source
# EGFR [11] = target: EGFR (UniProt P00533); remark: listed apart in the source
# EGFR [12] = target: EGFR (UniProt P00533); conditions: cho.ir
# ROCK2 (human) = ROCK2 (human) (UniProt O75116)
# CDK2 (human) [13] = target: CDK2 (human) (UniProt P24941); assay: Enzyme Assay; remark: listed apart in the source
# Sequence of PIK3CG (human) (P48736 whole entry, looked up): as above
# Sequence of PIK3CD (Human) (O00329 whole entry, looked up): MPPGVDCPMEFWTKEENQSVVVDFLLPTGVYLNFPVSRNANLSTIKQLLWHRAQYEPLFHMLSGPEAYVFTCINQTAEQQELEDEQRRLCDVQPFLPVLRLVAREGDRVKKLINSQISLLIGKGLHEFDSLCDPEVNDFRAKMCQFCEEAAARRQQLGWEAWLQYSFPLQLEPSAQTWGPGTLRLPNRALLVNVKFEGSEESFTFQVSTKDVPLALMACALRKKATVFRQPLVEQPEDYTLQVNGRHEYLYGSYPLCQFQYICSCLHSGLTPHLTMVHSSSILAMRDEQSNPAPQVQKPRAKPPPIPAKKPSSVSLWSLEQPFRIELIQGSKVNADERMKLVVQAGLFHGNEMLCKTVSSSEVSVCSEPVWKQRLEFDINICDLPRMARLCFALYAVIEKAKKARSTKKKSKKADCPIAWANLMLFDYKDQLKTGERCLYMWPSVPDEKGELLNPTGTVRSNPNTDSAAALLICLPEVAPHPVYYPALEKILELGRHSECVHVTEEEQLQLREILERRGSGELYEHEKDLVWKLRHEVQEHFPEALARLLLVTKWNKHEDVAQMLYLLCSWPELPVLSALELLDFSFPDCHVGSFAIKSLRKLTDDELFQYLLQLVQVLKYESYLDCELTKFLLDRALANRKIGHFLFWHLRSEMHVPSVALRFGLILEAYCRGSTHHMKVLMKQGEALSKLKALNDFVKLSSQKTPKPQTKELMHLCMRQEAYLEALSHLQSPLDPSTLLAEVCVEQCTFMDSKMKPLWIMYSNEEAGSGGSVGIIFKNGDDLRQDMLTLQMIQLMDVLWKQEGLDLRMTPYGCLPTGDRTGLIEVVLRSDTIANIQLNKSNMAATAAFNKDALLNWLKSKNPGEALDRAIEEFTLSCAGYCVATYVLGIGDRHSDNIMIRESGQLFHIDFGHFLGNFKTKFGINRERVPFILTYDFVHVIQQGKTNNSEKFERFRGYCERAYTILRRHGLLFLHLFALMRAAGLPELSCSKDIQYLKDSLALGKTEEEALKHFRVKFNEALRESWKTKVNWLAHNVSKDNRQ
smiles,measurement,setting,value
C=CCN(/C=C1/C(=O)O[C@H](COC)[C@@]2(C)C1=C(O)C(=O)C1=C2[C@H](OC(C)=O)C[C@]2(C)C(O)CC[C@H]12)CC=C (some centres not stated),IC50,PIK3CA (human),14 nM
same,IC50,PIK3CG (human) [1],148 nM
same,IC50,PIK3CD (Human) [2],131 nM
same,IC50,PIK3CB (Human),57 nM
COc1ccc2c(c1)c(/C=C1\Oc3cc(O)cc(O)c3C1=O)c1n2CCOC1,IC50,PIK3CG;PIK3CA (human),1910 nM
O=C(Nc1ccc(C(F)(F)F)cc1)Nc1ncnc2nn3ccccc3c12,IC50,EGFR [3],> 10000 nM
O=C(c1ccc2[nH]c3c(c2c1)CCNC3)N1CCC(Cc2ccc(F)cc2)CC1,IC50,MAPK14 [4],243 nM
NC(=O)c1c(NC(=O)C2CC2)sc2c1CCC(Br)(Br)C2=O,inhibition,EGFR [5],> 50%
COC(=O)c1cc(N=Cc2ccccc2O)ccc1O,IC50,EGFR (Hamster),> 100000 nM
C=C[C@@]1(C)CC[C@](C)(C(C)C)c2cc3c4c(c[nH]c4c21)C[C@@H](CO)NC(=O)[C@H](C(C)C)N3C,ID50,EGFR (mouse),2.23 nM
Cn1nnnc1Sc1cc(-c2c(-c3ccc(F)cc3)ncn2C2CCNCC2)ccn1,inhibition,MAPK14 [6],< 50 µM
CN=C1NC(=O)/C(=C/c2ccc3ncnc(N(C)C)c3c2)S1,IC50,PIK3CG,< 1000 nM
COc1ccc2c(c1)c(/C=C1\Oc3cc(O)cc(O)c3C1=O)c1n2CCN(C)C1,IC50,PIK3CG;PIK3CA (human),1610 nM
COc1ccc2c(c1)c(/C=C1\Oc3cc(O)ccc3C1=O)c1n2CCNC1,IC50,PIK3CG;PIK3CA (human),1510 nM
CC[C@H](Nc1nc(NCc2cccc(Cl)c2)c2ncn(C(C)C)c2n1)[C@@H](C)O,IC50,CDK2 (human) [7],100 nM
COc1ccc2c(c1)c(/C=C1\Oc3cc(O)ccc3C1=O)c1n2CCC1,IC50,PIK3CG;PIK3CA (human),3400 nM
CCN(CC)c1ncc2c(n1)-c1sc(NC(=O)N3CCC[C@@]3(Cc3ccccc3)C(N)=O)nc1CC2,IC50,PIK3CA (human),45 nM
same,IC50,PIK3CG (human) [1],1590 nM
same,IC50,PIK3CD (Human) [2],740 nM
same,IC50,PIK3CB (Human),127 nM
O=C(c1ccc2[nH]c3c(c2c1)CCNC3)N1CCC(Cc2ccccc2)CC1,IC50,MAPK14 [4],330 nM
Cc1nc2cnc3ccc(C#Cc4cccnc4)cc3c2n1-c1ccc(C(C)(C)C#N)cc1,IC50,PIK3CD (Human) [8],34 nM
same,IC50,PIK3CG (human) [9],112 nM
same,IC50,PIK3CA (human),56 nM
same,IC50,PIK3CG (human) [1],117 nM
same,IC50,PIK3CD (Human) [2],35 nM
same,IC50,PIK3CB (Human),446 nM
Fc1ccc(Oc2cc(-c3c(-c4ccc(F)cc4)ncn3C3CCNCC3)ccn2)cc1,inhibition,MAPK14 [6],< 50 µM
CN(C)CCCn1nc(C2=C(c3cn(-c4cccnc4)c4ccccc34)C(=O)NC2=O)c2ccccc21,IC50,EGFR [10],> 10000 nM
CN(C)CCCn1nc(C2=C(c3cn(-c4ccc5ccccc5c4)c4ccccc34)C(=O)NC2=O)c2ccccc21,IC50,EGFR [10],> 10000 nM
N#Cc1cccc(NC(=O)Nc2ncnc3nn4ccccc4c23)c1,IC50,EGFR [3],> 10000 nM
CNc1cc2c(Nc3cccc(Br)c3)ncnc2cn1,IC50,EGFR [11],0.008 nM
COC(=O)c1cc(NCc2cc(OC)ccc2OC)ccc1O,IC50,EGFR (Hamster),> 100000 nM
O=C(Nc1ccc(F)cc1)Nc1ncnc2nn3ccccc3c12,IC50,EGFR [3],> 10000 nM
COc1c(C(=O)N2CCC(Cc3ccc(F)cc3)CC2)ccc2[nH]c3c(c12)CCNC3,IC50,MAPK14 [4],242 nM
CN(C)CCCn1nc(C2=C(c3cn(-c4cccs4)c4ccccc34)C(=O)NC2=O)c2ccccc21,IC50,EGFR [10],> 10000 nM
O=C1C(O)=C(c2csc3ccccc23)C(=O)C(O)=C1c1ccccc1,activation,EGFR [12]; concentration not given here,< 5%
NC(=O)c1c(NC(=O)C2CC2)sc2c(O)c(Br)ccc12,inhibition,EGFR [5],> 50%
CCOc1ccc2c(c1)CC(C(=O)Nc1ccc(-c3cn[nH]c3)cc1OCCN(C)C)NC2 (configuration not stated),IC50,ROCK2 (human),850 nM
COc1ccc2c(c1)C[C@H](C(=O)Nc1ccc(-c3cn[nH]c3)cc1)NC2,IC50,ROCK2 (human),134 nM
O=C(O)c1cccc(N=Cc2cc(O)ccc2O)c1,IC50,EGFR (Hamster),> 10000 nM
CC[C@H](Nc1nc(NCc2ccc(C)nc2)c2ncn(C(C)C)c2n1)[C@@H](C)O,IC50,CDK2 (human) [7],3250 nM
CN(C)CCCn1nc(C2=C(c3cn(-c4csc5ccccc45)c4ccccc34)C(=O)NC2=O)c2ccccc21,IC50,EGFR [10],> 10000 nM
CC(C)[C@H]1C(=O)N[C@H](CO)Cc2c[nH]c3c(CCNC(=O)c4ccc(N=[N+]=[N-])cc4)ccc(c23)N1C,ID50,EGFR (mouse),1320 nM
CC[C@@](C)(CCCC(C)(C)SCCNC(=O)c1ccc(N=[N+]=[N-])cc1)c1ccc2c3c(c[nH]c13)C[C@@H](CO)NC(=O)[C@H](C(C)C)N2C,ID50,EGFR (mouse),4.4 nM
COC(=O)c1cc(N=Cc2ccc(O)cc2O)ccc1O,IC50,EGFR (Hamster),> 100000 nM
CN(C)CCCn1nc(C2=C(c3cn(-c4cccc5ccccc45)c4ccccc34)C(=O)NC2=O)c2ccccc21,IC50,EGFR [10],> 10000 nM
Cc1cccc2c(C3=C(O)C(=O)C(c4c[nH]c5ccccc45)=C(O)C3=O)c[nH]c12,EC50,EGFR [12],25000 nM
Fc1ccc(Oc2nccc(-c3c(-c4ccc(F)cc4)ncn3CCCN3CCOCC3)n2)cc1,inhibition,MAPK14 [6],< 50 µM
CC[C@H](Nc1nc(NCc2cccnc2)c2ncn(C(C)C)c2n1)C(C)(C)O,IC50,CDK2 (human) [13],70 nM
same,IC50,CDK2 (human) [7],200 nM
Nc1cc2c(Nc3cccc(Br)c3)ncnc2cn1,IC50,EGFR [11],0.13 nM
